According to US10617656B2, “Methods of increasing the cytotoxicity of chemotherapeutic agents with multisubstrate inhibitors of histone, protein-Lys, polyamine acetylation, and polyamine metabolism” (Vanderbilt University, priority 2010, dated 2020):

Columns and labels:
[1] = system: H358 lung cancer cells; assay: [3H]-thymidine incorporation (DNA synthesis) assay in H358 cells; format: cell-based
Description: (A) Structures of 1a, and the acetylated side chain of a lysine residue within the polypeptide chain of a protein targeted by the acetylating enzyme (R1 and R2 are the main chain elements on both sides of the lysyl residue). (B) [^3H]-thymidine incorporation into DNA of H358 cells pulsed for 6 hrs at three different time points after the addition of increasing concentrations of 1a, i.e., at 6-12 hrs (12 hr curve), at 18-24 hours (24 hr curve), or at 42-48 hrs (48 hr curve). Incorporation is represented as a percentage relative to control (untreated) cells. (C) Cell cycle analysis of propidium iodide-stained cells harvested at various times after addition of 50 μM 1a. % of cells in G1, S, and G2 represents the average of two independent profiles. (D) Western analysis of histone H3 lysine 9 acetylation, histone H3 lysine 56 acetylation, histone H3 lysine 9 methylation, and total histone H3, before “c” or at the indicated times after addition of 50 μM 1a. Each lane represents 60 μg cellular protein.
(§1) Control cells were left untreated. […] Control cells were left untreated.
Cells were either labeled immediately before treatment (starting DNA synthesis rate), or subjected to the indicated treatments and then pulsed on successive days until day 4. DNA synthesis is represented as the percent of starting DNA synthesis rate. Viability was determined for each treatment condition 24 hours post-start of treatment by the trypan blue exclusion assay, with percentages of viable cells indicated to the right of the graph.
H358 cells (2,000/well) in 96-well plates were treated with 1, 10 or 50 μM of spd-1a, spd-2a, spd-3a, spm3, or spm2 for 12 hours. Triplicate wells of cells were pulsed 6 hours with 0.5 μCi [^3H]-thymidine (NEN, Boston Mass.) post-start of drug treatment, and harvested onto filter paper using a Brandel Harvester and subjected to scintillation counting. Untreated cells were pulsed from 0-6 hrs to establish the initial rate of incorporation.
Cells were plated in 96-well plates (2000 cells per well to insure conditions for exponential growth for untreated cells over the time course of the experiment) and exposed to the following treatments: 1a (50 μM); camptothecin (Sigma, St Louis, Mo. 5 nM, 18 hours); cisplatin (Platinol, obtained through local pharmacies, 2 μM, 1 hour 15 minutes), 5-fluorouracil (5FU, Adrucil™, obtained through local pharmacies, 2 μM, 1 hour 15 minutes), Taxotere (provided by the late Dr. Pierre Potier, 5 nM, 18 hours). UVC treatment (40 J/m^2) using a Stratalinker™, Stratagene, La Jolla, Calif.) was carried using medium lacking phenol red. At 0-6 hr, 18-24 hr (day 1), 42-48 hr […], 66-72 hr (day 3), and 90-96 hr (day 4) post-start of treatment, triplicate wells were incubated with 0.5 μCi [^3H]-thymidine (NEN, Boston Mass.), harvested onto filter paper, and subjected to scintillation counting. Trypan blue exclusion assays for cell membrane integrity were carried out as known in the art.
The present inventors used 96-well viability assays as described in Saadatmandi et al (Cancer Gene Therapy (2002) 9:[…]) to examine the effect of 1a on DNA synthesis in H358 cells, as well as the combined effects of 1a and chemotherapeutic agents. H358 cells were plated in 96-well plates at 3000 cells per well. […]

[2] = system: H358 lung cancer cells; format: cell-based; conditions: 3 days
Description: as §1
Cells were given fresh inhibitor on the first, second, and third days of treatment and viability was measured on the 4th day (i.e. 3 days post start of treatment). […]
(A) Structure of Spd-3a. (B) Western analysis of histone H3K9-acetylation and total histone H3, measured in control, untreated H358 lung cancer cells “C” or in H358 cells incubated 12 hours in the presence of 50 μM Spd-2a or Spd-3a. Each lane represents 60 μg cellular protein. (C) [3H]-thymidine incorporation (counts per minute) into DNA of H358 cells during a 6 hour pulse beginning at 42 hours post-start of treatment. Treatments were as follows (bars 1-6 left to right): (1) control: no treatment; (2) CPT alone: 5 nM 18 hours; (3) 3a alone: 50 μM; (4-6) 3a+CPT: CPT (5 nm, 18 hours)+3a at indicated dose. After 18 hours, CPT was removed and medium was replaced with fresh medium containing Spd-3a at the indicated dose. Each bar represents the average of triplicates. (D) 3-day 96-well viability assay of H358 cells grown in the presence of increasing amounts of Spd-2a or Spd-3a, with or without CPT (5 nM 18 hours). […] Each data point represents the average of three wells.
Date of exp: Jul. […] Date of exp: Sep.
Cells were plated in 96-well plates at 2000 cells per well and treated with the indicated doses of spd-3a. Cell viability was measured by the MTS assay 3 days later.
DLD-1 cells or H358 cells were plated in 96-well plates at 2000 cells per well and treated with the indicated doses of (A) spm-3 or (B) spm-2. (C) Cell viability was measured by the MTS assay 3 days later. Similar experiment using GT41 fibroblasts with spm2 or spm 3. Each assay point represents an average of duplicates. […]

CC(=O)NCCSCC(=O)NCCCNCCCCNCCCN [spm-3]
inhibition of DNA synthesis ([1]; 1, 10 or 50 μM, 12 hours): inhibit DNA synthesis
suppression of cancer cell growth and viability ([2]; spm single agent): effective as single agents

CC(C)(COP(=O)(O)OP(=O)(O)OC[C@H]1O[C@@H](n2cnc3c(N)ncnc32)[C@H](O)[C@@H]1OP(=O)(O)O)[C@@H](O)C(=O)NCCC(=O)NCCSCC(=O)NCCCNCCCCN [1a, spermidine[N1]-CoA]
sensitization to 5-FU ([1]; 50 μM 1a + 5FU 2 μM): sensitized
suppression of 3 day cell viability ([2]; human): 60-70%
